Experimental data reported in US6737383B1, “Herbicidal oxadiazolidines” (priority 1999, dated 2004).

What was measured:
[1] = tested on: cocklebur; experiment: Test B pre/postemergence cocklebur; format: in vivo, Xanthium strumarium
Summary of the method: (§1)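 Herbicidal effect was estimated by eye on a ten-point control scale after plants spent twelve to sixteen days in a greenhouse following soil or foliar treatment. Foliar sprays targeted plants at one to four leaves; all doses were formulated in a non-phytotoxic solvent with surfactant.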

[2] = tested on: corn; experiment: Test B pre/postemergence corn; format: in vivo, Zea mays
Summary of the method: as §1

[3] = tested on: crabgrass; experiment: Test B pre/postemergence crabgrass; format: in vivo, Digitaria sanguinalis
Summary of the method: as §1

[4] = tested on: giant foxtail; experiment: Test B pre/postemergence giant foxtail; format: in vivo, Setaria faberii
Summary of the method: as §1

[5] = tested on: morningglory; experiment: Test B pre/postemergence morningglory; format: in vivo, Ipomoea hederacea
Summary of the method: as §1

[6] = tested on: pigweed; experiment: Test B pre/postemergence pigweed; format: in vivo, Amaranthus retroflexus
Summary of the method: as §1

[7] = tested on: rape; experiment: Test B pre/postemergence rape; format: in vivo, Brassica napus
Summary of the method: as §1

[8] = tested on: soybean; experiment: Test B pre/postemergence soybean; format: in vivo, Glycine max
Summary of the method: as §1

[9] = tested on: sugar beet; experiment: Test B pre/postemergence sugar beet; format: in vivo, Beta vulgaris
Summary of the method: as §1

[10] = tested on: velvetleaf; experiment: Test B pre/postemergence velvetleaf; format: in vivo, Abutilon theophrasti
Summary of the method: as §1

[11] = tested on: wheat; experiment: Test B pre/postemergence wheat; format: in vivo, Triticum aestivum
Summary of the method: as §1

[12] = tested on: wild oat; experiment: Test B pre/postemergence wild oat; format: in vivo, Avena fatua
Summary of the method: as §1

[13] = tested on: purple nutsedge; experiment: Test B pre/postemergence purple nutsedge; format: in vivo, Cyperus rotundus
Summary of the method: as §1

[14] = tested on: rice; experiment: Test B flood test rice; format: in vivo, Oryza sativa
Summary of the method: (§2)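 Flood test on plants grown to the 2-leaf stage; treated plants kept in greenhouse twelve to sixteen days, then visually rated against controls on a 0 (no effect) to 10 (complete control) scale.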

[15] = tested on: duck salad; experiment: Test B flood test duck salad; format: in vivo, Heteranthera limosa
Summary of the method: as §2

[16] = tested on: bamyardgrass; experiment: Test B flood test barnyardgrass; format: in vivo, Echinochloa crus-galli
Summary of the method: as §2

[17] = Postemergence, Rate 125 g/ha, scale of 0 to 10 where 0 is no effect and 10 is complete control
[18] = Preemergence, Rate 62 g/ha, scale of 0 to 10 where 0 is no effect and 10 is complete control
[19] = Preemergence, Rate 125 g/ha, 0 is no effect, 10 is complete control
[20] = Preemergence, Rate 250 g/ha, scale 0 to 10, 0 is no effect, 10 is complete control
[21] = Preemergence, Rate 500 g/ha, scale 0 to 10 (0 no effect, 10 complete control)
[22] = Rate 62 g/ha, Postemergence, scale of 0 to 10 where 0 is no effect and 10 is complete control
[23] = Rate 250 g/ha, Postemergence, scale 0 to 10, 0 is no effect, 10 is complete control
[24] = Rate 500 g/ha, Postemergence, scale 0 to 10
[25] = Postemergence (flood test species), Rate 125 g/ha, scale of 0 to 10 where 0 is no effect and 10 is complete control
[26] = Rate 62 g/ha, Postemergence section, flood test species, scale of 0 to 10 where 0 is no effect and 10 is complete control
[27] = Rate 250 g/ha, Postemergence (flood test), scale 0 to 10, 0 is no effect, 10 is complete control
[28] = Rate 500 g/ha, listed under Postemergence (flood test species), scale 0 to 10

In the case of `CC(C)Cn1c(=O)on(C(=O)N(c2ccc(F)cc2)C(C)C)c1=O` [Compound 169], the “Cocklebur plant response rating” value [1, 17] is reported as 0, the “Cocklebur plant response rating” value [1, 18] is reported as 0 and the “Cocklebur plant response rating (0 to 10 scale)” value [1, 19] is reported as 0. The “Cocklebur plant response rating” value [1, 20] was 0, the “Cocklebur plant response rating” value [1, 21] was 0 and the “Cocklebur plant response rating” value [1, 22] was 0. For the same molecule, the “Plant response rating, Cocklebur” value [1, 23] was 0, the “Cocklebur plant response rating” value [1, 24] was 3 and the “Corn plant response rating” value [2, 17] was 0. The “Corn plant response rating” value [2, 18] was 0, the “Corn plant response rating (0 to 10 scale)” value [2, 19] was 0 and the “Corn plant response rating” value [2, 20] was 3. For the same molecule, the “Corn plant response rating” value [2, 21] was 6, the “Corn plant response rating” value [2, 22] was 0 and the “Plant response rating, Corn” value [2, 23] was 0. The “Corn plant response rating” value [2, 24] was 0, the “Crabgrass plant response rating” value [3, 17] was 8 and the “Crabgrass plant response rating” value [3, 18] was 8. The “Crabgrass plant response rating (0 to 10 scale)” value [3, 19] was 8, the “Crabgrass plant response rating” value [3, 20] was 10 and the “Crabgrass plant response rating” value [3, 21] was 10. The “Crabgrass plant response rating” value [3, 22] was 2, the “Plant response rating, Crabgrass” value [3, 23] was 9 and the “Crabgrass plant response rating” value [3, 24] was 9. For the same molecule, the “Giant foxtail plant response rating” value [4, 17] was 2, the “Giant foxtail plant response rating” value [4, 18] was 10 and the “Giant foxtail plant response rating (0 to 10 scale)” value [4, 19] was 10. The “Giant foxtail plant response rating” value [4, 20] was 10, the “Giant foxtail plant response rating” value [4, 21] was 10 and the “Giant foxtail plant response rating” value [4, 22] was 0. The “Plant response rating, Giant foxtail” value [4, 23] was 6, the “Giant foxtail plant response rating” value [4, 24] was 9 and the “Morningglory plant response rating” value [5, 17] was 1. The “Morningglory plant response rating” value [5, 18] was 0, the “Morningglory plant response rating (0 to 10 scale)” value [5, 19] was 0 and the “Morningglory plant response rating” value [5, 20] was 0. For the same molecule, the “Morningglory plant response rating” value [5, 21] was 0, the “Morningglory plant response rating” value [5, 22] was 1 and the “Plant response rating, Morningglory” value [5, 23] was 5. For the same molecule, the “Morningglory plant response rating” value [5, 24] was 7, the “Redroot pigweed plant response rating” value [6, 17] was 0 and the “Redroot pigweed plant response rating” value [6, 18] was 6. The “Redroot pigweed plant response rating (0 to 10 scale)” value [6, 19] was 6, the “Redroot pigweed plant response rating” value [6, 20] was 8 and the “Redroot pigweed plant response rating” value [6, 21] was 8. For the same molecule, the “Redroot pigweed plant response rating” value [6, 22] was 0, the “Plant response rating, Redroot pigweed” value [6, 23] was 0 and the “Redroot pigweed plant response rating” value [6, 24] was 3. For the same molecule, the “Rape plant response rating” value [7, 17] was 0, the “Rape plant response rating” value [7, 18] was 2 and the “Rape plant response rating (0 to 10 scale)” value [7, 19] was 2. The “Rape plant response rating” value [7, 20] was 6, the “Rape plant response rating” value [7, 21] was 10 and the “Rape plant response rating” value [7, 22] was 0. The “Plant response rating, Rape” value [7, 23] was 0, the “Rape plant response rating” value [7, 24] was 3 and the “Soybean plant response rating” value [8, 17] was 1. The “Soybean plant response rating” value [8, 18] was 0, the “Soybean plant response rating (0 to 10 scale)” value [8, 19] was 0 and the “Soybean plant response rating” value [8, 20] was 2. For the same molecule, the “Soybean plant response rating” value [8, 21] was 5, the “Soybean plant response rating” value [8, 22] was 1 and the “Plant response rating, Soybean” value [8, 23] was 3. The “Soybean plant response rating” value [8, 24] was 6, the “Sugarbeets plant response rating” value [9, 17] was 0 and the “Sugarbeets plant response rating” value [9, 18] was 0. The “Sugarbeets plant response rating (0 to 10 scale)” value [9, 19] was 0, the “Sugarbeets plant response rating” value [9, 20] was 7 and the “Sugarbeets plant response rating” value [9, 21] was 8. For the same molecule, the “Sugarbeets plant response rating” value [9, 22] was 0, the “Plant response rating, Sugarbeets” value [9, 23] was 0 and the “Sugarbeets plant response rating” value [9, 24] was 0. For the same molecule, the “Velvetleaf plant response rating” value [10, 18] was 2, the “Velvetleaf plant response rating (0 to 10 scale)” value [10, 19] was 2 and the “Velvetleaf plant response rating” value [10, 20] was 6. For the same molecule, the “Velvetleaf plant response rating” value [10, 21] was 8, the “Plant response rating, Velvetleaf” value [10, 23] was 0 and the “Velvetleaf plant response rating” value [10, 24] was 0. For the same molecule, the “Wheat plant response rating” value [11, 18] was 0, the “Wheat plant response rating (0 to 10 scale)” value [11, 19] was 0 and the “Wheat plant response rating” value [11, 20] was 3. The “Wheat plant response rating” value [11, 21] was 4, the “Plant response rating, Wheat” value [11, 23] was 0 and the “Wheat plant response rating” value [11, 24] was 2. For the same molecule, the “Wild oats plant response rating” value [12, 18] was 8, the “Wild oats plant response rating (0 to 10 scale)” value [12, 19] was 8 and the “Wild oats plant response rating” value [12, 20] was 8. The “Wild oats plant response rating” value [12, 21] was 10, the “Plant response rating, Wild oats” value [12, 23] was 0 and the “Wild oats plant response rating” value [12, 24] was 2. The “Nutsedge plant response rating” value [13, 17] was 0, the “Nutsedge plant response rating” value [13, 18] was 0 and the “Nutsedge plant response rating (0 to 10 scale)” value [13, 19] was 0. For the same molecule, the “Nutsedge plant response rating” value [13, 20] was 0, the “Nutsedge plant response rating” value [13, 21] was 3 and the “Nutsedge plant response rating” value [13, 22] was 0. For the same molecule, the “Plant response rating, Nutsedge” value [13, 23] was 0, the “Nutsedge plant response rating” value [13, 24] was 0 and the “Rice plant response rating” value [14, 25] was 0. The “Rice plant response rating” value [14, 26] was 0, the “Plant response rating, Rice” value [14, 27] was 0 and the “Rice plant response rating” value [14, 28] was 0. For the same molecule, the “Ducksalad plant response rating” value [15, 25] was 0, the “Ducksalad plant response rating” value [15, 26] was 0 and the “Plant response rating, Ducksalad” value [15, 27] was 0. The “Ducksalad plant response rating” value [15, 28] was 0, the “Barnyardgrass plant response rating” value [16, 25] was 0 and the “Barnyardgrass plant response rating” value [16, 26] was 0. For the same molecule, the “Plant response rating, Barnyardgrass” value [16, 27] was 0 and the “Barnyardgrass plant response rating” value [16, 28] was 0.
